Earlier results in patent US20190167749A1, “THE OLEO GEL COMPOSITION AND DELIVERY SYSTEM WITH ACTIVE COMPOUNDS FROM CANNABIS SATIVA AND MENTHA ARVENSIS FOR REDUCTION OF INFLAMMATION AND PAIN IN DEEP TISSUES” (UAB SATIMED, priority 2016, published 2019).
Read-outs that look alike come from different tables or passages of the source.

System: collagen-induced arthritis

C=C(C)[C@@H]1CCC(C)=C[C@H]1c1c(O)cc(CCCCC)cc1O [CBD, cannabidiol]
progression of arthritis (acute and chronic relapsing CIA, i.p. or oral administration): effectively blocked progression of arthritis | dose with optimal effect (bell-shaped dose dependency) (i.p.): 5 mg/kg per day | dose with optimal effect (bell-shaped dose dependency) (orally): 25 mg/kg per day
